Source: publication PMC10907374, “G2019S selective LRRK2 kinase inhibitor abrogates mitochondrial DNA damage” (NPJ Parkinson's Disease, 2024)
“Also recorded” adds a separate entry of the source.

What was measured:
[1] = system: wild-type HEK293 cells; assay: Mito DNADX mtDNA damage and mtDNA copy number in wild-type HEK293 cells; type: cell-based, human; details: 10 nM-1 μM, 2 h
Method: Cells were plated at a density of 0.3 × 10^6 cells in a 6-well dish and treated at ~40–50% confluency. At the time of harvest, cells were collected and either protein collected or DNA extracted as described below.
Following this treatment, “Post-treatment recovery 0 h” samples were collected immediately, or vehicle or MLi-2-containing treatment medium was washed out and replaced with fresh medium and incubated for 2 additional hours and then collected as “Post-treatment recovery 2 h” samples. Isolation, quantitation, and mtDNA damage was performed as described below. […]
Cells were collected and the nuclei and mitochondria were isolated as previously described. […] DNA was eluted with EDTA-free buffer, and quality was assessed using a Spectradrop microvolume microplate (Molecular Devices). Double-stranded DNA was quantified using Quant-iT Picogreen dsDNA assay (Thermo Fisher) as previously described.
DNA damage in the mitochondrial genome was measured utilizing Mito DNADX, an assay that we recently developed and described, currently the most robust way of measuring damage in mtDNA[39],[82]. The Mito DNADX assay combines optimized polymerase chain reaction (PCR) parameters using a high-fidelity DNA polymerase and a fluorescent dye that binds to double-stranded DNA that permits the real-time quantification of DNA damage in distinct loci in a 96-well platform. […]

[2] = system: healthy control LCLs; assay: Mito DNADX mtDNA damage and mtDNA copy number in healthy control-derived LCLs; type: cell-based, human; details: 10 and 100 nM, 2 h
Method: (§1) PD patient G2019S LRRK2 (n = 2) and healthy subject control (n = 2)-derived LCLs were obtained from the NINDS Coriell biorepository (ID numbers are ND00011, ND00264, ND01618, ND02559). There was not a statistical difference in the ages between the PD patient and healthy control subjects (p = 0.92). LCLs were cultured at 37 °C, 5% CO2, in RPMI-1640 (Sigma-Aldrich, R8758), 15% heat-inactivated fetal bovine serum (VWR Seradigm, 97068-091) and 0.5% Penicillin/Streptomycin (Corning, 30-002-CI). […] All in vitro experiments were repeated at least three times from distinct samples.
The tool compound EB-42168 was discovered as part of a small molecule discovery program aimed at identifying LRRK2 kinase inhibitors that are selective for the pathogenic G2019S LRRK2 variant. […] MLi‐2 inhibits WT LRRK2 ~1000‐fold more than EB‐42168[20].
Cells were collected and the nuclei and mitochondria were isolated as previously described. DNA was extracted from LRRK2-WT and G2019S-LRRK2 cells, and wild-type and LRRK2^G2019S/G2019S KI cells using QuickGene DNA Whole Blood Kit L (Autogen, fk-dbl). PD patient LRRK2 G2019S and healthy subject control-derived LCL DNA was extracted using the QuickGene DNA Tissue Kit L (Autogen, fk-dtl), utilizing a semi-automated system (Autogen, QuickGene-610L). For the Autogen system, the pellet was resuspended in 2 ml of 1X PBS, and the standard manufacturer’s protocol was conducted as if the cell suspension was whole blood. DNA was eluted with EDTA-free buffer, and quality was assessed using a Spectradrop microvolume microplate (Molecular Devices). Double-stranded DNA was quantified using Quant-iT Picogreen dsDNA assay (Thermo Fisher) as previously described.
DNA damage in the mitochondrial genome was measured utilizing Mito DNADX, an assay that we recently developed and described, currently the most robust way of measuring damage in mtDNA[39],[82]. The Mito DNADX assay combines optimized polymerase chain reaction (PCR) parameters using a high-fidelity DNA polymerase and a fluorescent dye that binds to double-stranded DNA that permits the real-time quantification of DNA damage in distinct loci in a 96-well platform. The premise of the Mito DNADX assay involves amplification of a specific mitochondrial PCR fragment in which less PCR product will be amplified when mtDNA damage or lesions block the ability of the DNA polymerase to replicate. As such, mtDNA damage or mtDNA repair intermediates that slow down or impair DNA polymerase progression will be detected. […] Briefly, 15 ng of DNA was used to amplify long or short amplicons of the mitochondrial genome (as determined by primer sets). […] Average lesion frequency is calculated as described. […] Each biological DNA sample was analyzed in technical triplicate. […]

[3] = biological target: T1, LRRK2 in healthy control lymphoblastoid cells (LCLs) (Homo sapiens, UniProt Q5S007); assay: LRRK2 pSer935 western immunoblot in healthy control-derived LCLs; type: cell-based; details: 10 and 100 nM, 2 h
T1 construct: Due to the differing endogenous LRRK2 levels; host or cells: healthy subject control-derived lymphoblastoid cell lines (n = 2)
Method: as §1, with “There was not a statistical difference in the ages between the PD patient and healthy control subjects (p = 0.92).” left out
For LRRK2-WT or G2019S-LRRK2, ~1.5 million cells were pelleted and resuspended in 75 μl of lysis buffer [(RIPA Buffer (Sigma-Aldrich, R0278-50ML), protease inhibitor cocktail (Sigma-Aldrich, P8340), and Halt phosphatase inhibitor cocktail (Thermo Fisher, 78420)]. For LCLs, five million cells were pelleted and resuspended in 100 µl of lysis buffer. For both types of cells lysates were centrifuged at 10,000 × g after a 10 min incubation on ice, and the supernatant was collected. Protein was quantified using the DC protein assay (Bio-Rad, 5000112). In total, 50 μg of protein was loaded for HEK293 LRRK2-WT or G2019S-LRRK2 cells. […] Fluorescence intensities were quantified using ImageStudio Lite software (LI-COR), and the signal from the protein of interest was normalized to the fluorescence intensity of either LRRK2 or β-actin. […]

T1 sequence (Q5S007 whole entry): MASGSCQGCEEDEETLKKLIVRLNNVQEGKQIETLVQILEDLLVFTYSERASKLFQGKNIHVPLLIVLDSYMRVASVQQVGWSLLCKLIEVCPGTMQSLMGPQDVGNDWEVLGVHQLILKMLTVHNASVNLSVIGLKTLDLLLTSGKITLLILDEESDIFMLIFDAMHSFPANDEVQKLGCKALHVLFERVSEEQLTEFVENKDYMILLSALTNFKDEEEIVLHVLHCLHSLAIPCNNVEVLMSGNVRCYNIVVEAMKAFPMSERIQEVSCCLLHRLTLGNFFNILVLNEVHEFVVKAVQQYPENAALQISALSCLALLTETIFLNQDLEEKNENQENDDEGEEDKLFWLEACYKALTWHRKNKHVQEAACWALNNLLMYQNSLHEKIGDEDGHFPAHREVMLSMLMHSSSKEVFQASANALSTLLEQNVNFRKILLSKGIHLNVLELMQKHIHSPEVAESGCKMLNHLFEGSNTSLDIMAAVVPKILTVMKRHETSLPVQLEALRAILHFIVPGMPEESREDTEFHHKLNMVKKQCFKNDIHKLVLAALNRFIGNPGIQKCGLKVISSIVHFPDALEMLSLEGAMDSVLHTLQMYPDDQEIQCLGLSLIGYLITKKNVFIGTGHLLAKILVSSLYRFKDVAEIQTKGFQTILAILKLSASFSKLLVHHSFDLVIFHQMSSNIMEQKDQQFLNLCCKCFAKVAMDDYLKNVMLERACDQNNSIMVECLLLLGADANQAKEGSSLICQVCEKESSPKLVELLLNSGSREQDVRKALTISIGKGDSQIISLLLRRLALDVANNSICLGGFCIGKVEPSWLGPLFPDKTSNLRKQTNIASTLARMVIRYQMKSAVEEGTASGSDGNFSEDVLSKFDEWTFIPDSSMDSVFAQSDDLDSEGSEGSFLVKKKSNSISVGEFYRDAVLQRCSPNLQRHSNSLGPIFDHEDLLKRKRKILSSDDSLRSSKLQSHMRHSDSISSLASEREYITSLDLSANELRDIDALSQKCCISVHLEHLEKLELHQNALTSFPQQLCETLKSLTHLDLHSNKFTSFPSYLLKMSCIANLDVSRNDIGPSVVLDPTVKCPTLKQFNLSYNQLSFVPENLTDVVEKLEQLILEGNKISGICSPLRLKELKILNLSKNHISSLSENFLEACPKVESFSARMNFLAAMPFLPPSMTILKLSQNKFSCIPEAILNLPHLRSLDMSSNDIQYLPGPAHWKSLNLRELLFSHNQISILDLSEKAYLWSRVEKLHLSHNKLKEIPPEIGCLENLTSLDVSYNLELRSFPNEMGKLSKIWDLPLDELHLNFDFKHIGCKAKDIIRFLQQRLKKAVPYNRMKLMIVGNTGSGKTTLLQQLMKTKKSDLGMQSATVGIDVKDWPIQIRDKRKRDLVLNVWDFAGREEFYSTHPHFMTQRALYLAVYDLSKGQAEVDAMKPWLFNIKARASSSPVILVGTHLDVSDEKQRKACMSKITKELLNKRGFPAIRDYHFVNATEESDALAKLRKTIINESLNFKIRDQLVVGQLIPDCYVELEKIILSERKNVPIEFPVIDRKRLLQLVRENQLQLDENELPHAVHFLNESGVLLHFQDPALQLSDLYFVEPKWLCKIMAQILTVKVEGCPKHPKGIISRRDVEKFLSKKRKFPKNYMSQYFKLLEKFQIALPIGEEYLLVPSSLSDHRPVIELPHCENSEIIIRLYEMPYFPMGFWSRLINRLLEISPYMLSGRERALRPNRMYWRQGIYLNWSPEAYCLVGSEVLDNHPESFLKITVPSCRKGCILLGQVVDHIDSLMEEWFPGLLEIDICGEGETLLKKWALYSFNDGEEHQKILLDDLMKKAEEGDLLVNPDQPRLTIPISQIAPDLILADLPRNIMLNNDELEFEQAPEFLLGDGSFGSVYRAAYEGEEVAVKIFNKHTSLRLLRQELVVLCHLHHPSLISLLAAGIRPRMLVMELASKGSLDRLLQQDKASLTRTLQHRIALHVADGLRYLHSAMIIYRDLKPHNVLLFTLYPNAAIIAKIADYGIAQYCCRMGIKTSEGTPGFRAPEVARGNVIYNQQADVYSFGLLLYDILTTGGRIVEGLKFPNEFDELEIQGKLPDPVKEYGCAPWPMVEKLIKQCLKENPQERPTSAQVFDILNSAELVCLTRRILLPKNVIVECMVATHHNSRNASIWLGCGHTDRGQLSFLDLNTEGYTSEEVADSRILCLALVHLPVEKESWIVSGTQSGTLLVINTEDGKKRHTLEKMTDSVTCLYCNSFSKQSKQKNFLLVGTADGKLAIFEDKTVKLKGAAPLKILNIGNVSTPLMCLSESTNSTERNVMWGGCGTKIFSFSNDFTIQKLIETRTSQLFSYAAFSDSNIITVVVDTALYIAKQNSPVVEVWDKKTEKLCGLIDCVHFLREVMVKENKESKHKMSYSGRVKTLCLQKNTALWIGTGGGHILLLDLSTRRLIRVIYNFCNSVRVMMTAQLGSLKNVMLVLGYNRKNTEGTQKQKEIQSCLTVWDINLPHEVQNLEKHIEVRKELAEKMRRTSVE

SMILES: CC1=C(C(=O)Nc2ccc3[nH]nc(-c4ccnc(N5CCOCC5)c4)c3c2)C(C)(C)n2nnnc2N1C [EB-42168]
- mtDNA copy number [1]: no effect
- mtDNA copy number [2]: No differences
- mtDNA damage [2]: without an effect
- effect on LRRK2 pSer935 (in words) [3]: did not impact; also recorded: no change; also recorded: without a change

SMILES: C[C@@H]1CN(c2cc(-c3n[nH]c4ccc(OC5(C)CC5)cc34)ncn2)C[C@H](C)O1 [MLi-2, reference compound]
- mtDNA copy number [1]: did not change
- mtDNA copy number [2]: No differences
- mtDNA damage [2]: no effect
